Measurements: patent US20060063711A1, “Use of sglt homolog” (priority 2002, published 2006)

Key:
[1] = test system: rat SGLT homolog (rSGLTh); experiment: α-methyl glucose uptake in CHO cells expressing rSGLTh; format: cell-based; details: control = NMDG without NaCl
Procedure: In accordance with the procedures described in Example 4 of WO 02/53738, the CHO cell lines expressing the human SGLT homolog (hSGLTh), mouse SGLT homolog (mSGLTh), rat SGLT homolog (rSGLTh), human SGLT1 (hSGLT1) and human SGLT2 (hSGLT2) were prepared, respectively, and used for experiments. The experimental uptake of α-methyl glucose, which is a glucose analog selectively taken up into the cells by SGLT, was carried out according to the method described in Am. J. Physiol., 270: G833-G843, 1996 and J. Clin. Invest., 93: 397-404, 1994. The cells were plated on 100 μl of DMEM containing 10% FBS charged in a 96-well plate in a cell density of 1×10^5 cells/well, followed by culturing overnight at 37° C. The cells were washed 3 times with 150 μl of a buffer solution (125 mM N-Methyl-D-Glucamine, 1.2 mM KH2PO4, 2.5 mM CaCl2, 1.2 mM MgSO4, 4 mM Glutamine, 10 mM HEPES (pH 7.2), 0.1 mg/ml BSA) and cultured for an hour in the same buffer solution to remove the remaining glucose. The buffer solution was removed and replaced with 90 μl of the same buffer solution or the buffer solution containing NaCl or NaCl+Phlorizin (Sigma) in place of N-Methyl-D-Glucamine (NMDG). […] The radioactivity of ^14C taken up into the cells was counted with 100 μl of a liquid scintillator added per well.

[2] = molecular target: T1, human SGLT homolog (hSGLTh) (Homo sapiens, UniProt Q2M3M2, I269M); experiment: α-methyl glucose uptake in CHO cells expressing hSGLTh; format: cell-based; details: for Uptake of α-Methyl Glucose (% based on Control Group): hSGLTh CHO cells, control = NMDG without NaCl
T1 construct: expressed in transfected cells; host or cells: CHO cells
T1 sequence (Q2M3M2 8-681 I269M limits assumed): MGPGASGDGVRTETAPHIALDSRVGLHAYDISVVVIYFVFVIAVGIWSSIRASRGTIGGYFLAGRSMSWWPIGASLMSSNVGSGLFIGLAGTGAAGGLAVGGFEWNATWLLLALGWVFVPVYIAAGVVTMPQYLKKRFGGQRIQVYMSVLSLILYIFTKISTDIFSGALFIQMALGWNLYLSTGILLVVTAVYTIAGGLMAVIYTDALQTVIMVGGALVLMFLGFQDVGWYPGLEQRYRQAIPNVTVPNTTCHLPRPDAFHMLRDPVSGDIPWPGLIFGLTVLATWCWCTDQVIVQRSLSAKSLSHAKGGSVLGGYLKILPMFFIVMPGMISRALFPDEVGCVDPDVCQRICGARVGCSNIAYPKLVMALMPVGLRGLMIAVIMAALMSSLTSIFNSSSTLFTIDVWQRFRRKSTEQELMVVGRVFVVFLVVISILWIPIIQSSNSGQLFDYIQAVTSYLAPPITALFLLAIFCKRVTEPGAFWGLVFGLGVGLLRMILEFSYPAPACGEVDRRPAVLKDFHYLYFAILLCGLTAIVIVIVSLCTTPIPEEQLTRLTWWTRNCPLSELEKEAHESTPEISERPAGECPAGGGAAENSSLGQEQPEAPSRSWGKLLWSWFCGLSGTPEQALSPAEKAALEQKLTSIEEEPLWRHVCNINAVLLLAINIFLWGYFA
Procedure: (§1) In accordance with the procedures described in Example 4 of WO 02/53738, the CHO cell lines expressing the human SGLT homolog (hSGLTh), mouse SGLT homolog (mSGLTh), rat SGLT homolog (rSGLTh), human SGLT1 (hSGLT1) and human SGLT2 (hSGLT2) were prepared, respectively, and used for experiments. The experimental uptake of α-methyl glucose, which is a glucose analog selectively taken up into the cells by SGLT, was carried out according to the method described in Am. J. Physiol., 270: G833-G843, 1996 and J. Clin. Invest., 93: 397-404, 1994. The cells were plated on 100 μl of DMEM containing 10% FBS charged in a 96-well plate in a cell density of 1×10^5 cells/well, followed by culturing overnight at 37° C. The cells were washed 3 times with 150 μl of a buffer solution (125 mM N-Methyl-D-Glucamine, 1.2 mM KH2PO4, 2.5 mM CaCl2, 1.2 mM MgSO4, 4 mM Glutamine, 10 mM HEPES (pH 7.2), 0.1 mg/ml BSA) and cultured for an hour in the same buffer solution to remove the remaining glucose. The buffer solution was removed and replaced with 90 μl of the same buffer solution or the buffer solution containing NaCl or NaCl+Phlorizin (Sigma) in place of N-Methyl-D-Glucamine (NMDG). After one-hour incubation with 10 μl of 1 mM α-methyl glucose (containing 0.02 μCi of [^14C]-α-Methyl Glucose (Amersham Pharmacia Biotech)) per well, the cells were washed 3 times with 200 μl of chilled PBS buffer. The radioactivity of ^14C taken up into the cells was counted with 100 μl of a liquid scintillator added per well.

hamster small intestine = experiment: glucose uptake in small intestine by the organ culture system; details: hamster jejunal slices, NaCl + 30 μM Phlorizin, 10 minutes at 37° C.
Procedure: The glucose uptake level was determined by the intestinal organ culture system in accordance with the procedures described in Peptides, 19: 1249-1253, 1998 and J. Agric. Food Chem., 48: 5618-5623, 2000. The carotid was cut in mice, rats, guinea pigs and hamsters under ether anesthesia to put them to death. The jejunal region was excised, mesenteric fats were removed, the tract was dissected and the contents were washed and cut in 1 cm length. The jejunal slices were washed 3 times with a buffer solution (125 mM N-Methyl-D-Glucamine (NMDG), 1.2 mM KH2PO4, 2.5 mM CaCl2, 1.2 mM MgSO4, 4 mM Glutamine, 10 mM HEPES (pH 7.2), 0.1 mg/ml BSA) and then transferred to a 48-well plate by one slice/well. […]. The jejunal slices were transferred to a mini-vial for liquid scintillation counting. After 500 μl of tissue solubilizer Solvable (Perkin Elmer LifeSciences) was added thereto, the mixture was treated at 50° C. for 2 hours to solubilize the tissues. After 5 ml of liquid scintillator Ultima Gold-XR (Perkin Elmer LifeSciences) was added, ^14C and ^3H taken up into the jejunal slices were counted. […]

[3] = molecular target: T2, mouse SGLT homolog (mSGLTh) (Mus musculus, UniProt Q8VDT1); experiment: α-methyl glucose uptake in CHO cells expressing mSGLTh; format: cell-based; details: for Uptake of α-Methyl Glucose (% based on Control Group): mSGLTh CHO cells, control = NMDG without NaCl
T2 construct: expressed in transfected cells; host or cells: CHO cells
T2 sequence (Q8VDT1 8-685 limits assumed): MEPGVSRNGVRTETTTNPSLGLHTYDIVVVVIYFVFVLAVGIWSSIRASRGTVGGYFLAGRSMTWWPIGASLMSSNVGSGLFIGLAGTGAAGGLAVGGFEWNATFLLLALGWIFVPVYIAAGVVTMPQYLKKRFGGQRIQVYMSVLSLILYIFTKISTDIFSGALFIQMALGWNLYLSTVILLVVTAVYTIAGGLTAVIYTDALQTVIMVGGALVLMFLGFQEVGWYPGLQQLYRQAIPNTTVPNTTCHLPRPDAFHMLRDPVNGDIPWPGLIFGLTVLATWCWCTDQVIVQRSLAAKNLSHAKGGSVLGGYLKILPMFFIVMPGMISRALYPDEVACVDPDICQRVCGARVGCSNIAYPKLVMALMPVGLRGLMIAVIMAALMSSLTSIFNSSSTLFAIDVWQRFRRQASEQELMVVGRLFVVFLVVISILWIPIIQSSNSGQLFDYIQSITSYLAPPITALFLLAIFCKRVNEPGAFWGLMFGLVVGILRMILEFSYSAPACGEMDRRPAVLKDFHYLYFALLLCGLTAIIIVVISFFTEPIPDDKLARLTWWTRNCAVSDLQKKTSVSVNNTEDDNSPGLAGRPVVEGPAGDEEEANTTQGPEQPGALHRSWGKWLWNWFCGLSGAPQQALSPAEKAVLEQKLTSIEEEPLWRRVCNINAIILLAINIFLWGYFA
Procedure: as §1

O=C(CCc1ccc(O)cc1)c1c(O)cc(O)cc1O[C@@H]1O[C@H](CO)[C@@H](O)[C@H](O)[C@H]1O [phlorizin]
Uptake of α-Methyl Glucose (% based on Control Group) ([1]; NaCl + 15 μM phlorizin): 643 ± 76% | Uptake of α-Methyl Glucose (% based on Control Group) ([1]; NaCl + 500 μM): 118 ± 6% | Uptake of α-Methyl Glucose (% based on Control Group) ([2]; NaCl + 3 μM phlorizin): 570 ± 142% | Uptake of α-Methyl Glucose (% based on Control Group) ([2]; NaCl + 100 μM phlorizin): 124 ± 19% | resistance to phlorizin ([2]; human SGLT homolog compared with SGLT1 and SGLT2): more potent than in SGLT1 and SGLT2 | SGLT activity (α-methyl glucose uptake) resistance to phloridzin (hamster small intestine): strongly resistant | Uptake of α-Methyl Glucose (% based on Control Group) ([3]; NaCl + 15 μM phlorizin): 521 ± 35% | Uptake of α-Methyl Glucose (% based on Control Group) ([3]; NaCl + 500 μM): 78 ± 8% | resistance to phlorizin ([3]; mouse SGLT homolog compared with SGLT1 and SGLT2): more potent than in SGLT1 and SGLT2
